Earlier results in publication PMC11609630 (Cancer Discovery, 2024).

System: patients with TNBC

sacituzumab govitecan: TROP2-targeting antibody–drug conjugate
gain in ORR compared with chemotherapy (cohort of relapsed patients with TNBC): 30% | patients experiencing adverse events of grade 3 or higher (such as neutropenia and leukopenia): more than 50%
